The kinase profiling compilation of Christmann-Franck et al. (2016)

How the values were obtained:
Assay in all cases: radiometric filter-binding kinase assay
[1] = target: IKBKB (human) (UniProt O14920); settings: compound 1.0 µM
[2] = target: HIPK1 (human) (UniProt Q86Z02)
[3] = target: MAP3K1 (human) (UniProt Q13233)
[4] = target: CDK2 CCNA2 (human) (UniProt P20248+P24941)
[5] = target: MYLK (human) (UniProt Q15746)
[6] = target: IRAK4 (human) (UniProt Q9NWZ3)
[7] = target: MARK4 (human) (UniProt Q96L34)
[8] = target: ULK2 (human) (UniProt Q8IYT8)
[9] = target: PDGFRA (human) (UniProt P16234)
[10] = target: SRPK1 (human) (UniProt Q96SB4)
[11] = target: PIM2 (human) (UniProt Q9P1W9)
[12] = target: MAP4K3 (human) (UniProt Q8IVH8); settings: compound 1.0 µM
[13] = target: EPHB3 (human) (UniProt P54753); settings: compound 10.0 µM
[14] = target: NTRK1 (human) (UniProt P04629); settings: compound 10.0 µM
[15] = target: TEK (human) (UniProt Q02763)
Chain of TEK (human) (Q02763 whole entry, looked up): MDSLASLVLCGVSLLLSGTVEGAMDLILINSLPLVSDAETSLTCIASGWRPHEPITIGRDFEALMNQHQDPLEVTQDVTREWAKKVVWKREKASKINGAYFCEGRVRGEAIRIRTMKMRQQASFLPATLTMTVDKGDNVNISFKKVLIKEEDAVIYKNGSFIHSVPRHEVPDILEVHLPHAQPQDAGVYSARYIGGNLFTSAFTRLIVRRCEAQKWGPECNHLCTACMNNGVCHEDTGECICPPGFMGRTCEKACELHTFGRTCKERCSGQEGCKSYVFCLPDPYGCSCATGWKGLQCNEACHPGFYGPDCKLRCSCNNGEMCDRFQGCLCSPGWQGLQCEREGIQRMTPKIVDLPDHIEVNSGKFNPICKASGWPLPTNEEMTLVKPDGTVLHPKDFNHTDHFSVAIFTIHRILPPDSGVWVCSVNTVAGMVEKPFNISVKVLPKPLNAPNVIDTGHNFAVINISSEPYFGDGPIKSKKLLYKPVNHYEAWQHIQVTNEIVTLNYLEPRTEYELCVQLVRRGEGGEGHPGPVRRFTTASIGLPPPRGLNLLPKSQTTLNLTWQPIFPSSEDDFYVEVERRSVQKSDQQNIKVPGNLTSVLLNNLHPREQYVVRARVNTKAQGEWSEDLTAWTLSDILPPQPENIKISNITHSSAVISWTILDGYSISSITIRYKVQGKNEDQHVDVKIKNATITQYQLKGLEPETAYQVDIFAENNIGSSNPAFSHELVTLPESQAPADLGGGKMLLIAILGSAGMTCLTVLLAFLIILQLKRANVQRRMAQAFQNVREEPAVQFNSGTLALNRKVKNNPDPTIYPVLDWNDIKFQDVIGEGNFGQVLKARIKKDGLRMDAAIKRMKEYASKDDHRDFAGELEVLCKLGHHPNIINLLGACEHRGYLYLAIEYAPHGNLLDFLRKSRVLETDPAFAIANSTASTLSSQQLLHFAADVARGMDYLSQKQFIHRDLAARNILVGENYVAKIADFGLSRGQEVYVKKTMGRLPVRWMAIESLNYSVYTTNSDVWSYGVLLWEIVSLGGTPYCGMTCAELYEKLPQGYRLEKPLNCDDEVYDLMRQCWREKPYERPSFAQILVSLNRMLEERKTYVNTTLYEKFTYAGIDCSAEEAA

[16] = target: STK24 (human) (UniProt Q9Y6E0); settings: compound 1.0 µM
[17] = target: FLT1 (human) (UniProt P17948); settings: compound 1.0 µM
[18] = target: SIK2 (human) (UniProt Q9H0K1)
Chain of SIK2 (human) (Q9H0K1 whole entry, looked up): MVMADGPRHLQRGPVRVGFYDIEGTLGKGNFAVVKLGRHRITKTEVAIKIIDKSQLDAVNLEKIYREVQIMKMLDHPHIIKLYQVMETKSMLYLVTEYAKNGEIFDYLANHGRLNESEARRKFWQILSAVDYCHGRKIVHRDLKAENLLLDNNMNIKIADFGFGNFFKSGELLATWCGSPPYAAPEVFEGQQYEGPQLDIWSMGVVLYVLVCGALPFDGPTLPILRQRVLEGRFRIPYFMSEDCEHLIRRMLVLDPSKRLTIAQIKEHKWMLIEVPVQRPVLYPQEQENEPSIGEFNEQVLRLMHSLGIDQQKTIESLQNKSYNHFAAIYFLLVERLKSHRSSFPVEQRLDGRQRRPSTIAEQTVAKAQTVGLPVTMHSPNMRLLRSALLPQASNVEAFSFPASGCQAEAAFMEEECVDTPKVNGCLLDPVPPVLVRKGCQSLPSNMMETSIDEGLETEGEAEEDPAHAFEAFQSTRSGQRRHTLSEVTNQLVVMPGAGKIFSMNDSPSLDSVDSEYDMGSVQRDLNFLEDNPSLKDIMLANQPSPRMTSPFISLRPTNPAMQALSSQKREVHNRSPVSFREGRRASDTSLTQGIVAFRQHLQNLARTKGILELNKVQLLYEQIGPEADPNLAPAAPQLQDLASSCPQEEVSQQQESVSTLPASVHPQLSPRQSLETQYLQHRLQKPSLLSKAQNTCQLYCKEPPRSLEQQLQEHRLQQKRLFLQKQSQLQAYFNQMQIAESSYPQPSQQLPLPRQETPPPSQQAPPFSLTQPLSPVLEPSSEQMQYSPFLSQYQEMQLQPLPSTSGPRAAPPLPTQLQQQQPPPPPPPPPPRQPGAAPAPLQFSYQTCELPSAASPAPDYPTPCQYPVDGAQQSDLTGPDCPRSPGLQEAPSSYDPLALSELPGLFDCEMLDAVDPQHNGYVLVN

[19] = target: EPHB4 (human) (UniProt P54760)
[20] = target: CHEK2 (human) (UniProt O96017)
Chain of CHEK2 (human) (O96017 whole entry, looked up): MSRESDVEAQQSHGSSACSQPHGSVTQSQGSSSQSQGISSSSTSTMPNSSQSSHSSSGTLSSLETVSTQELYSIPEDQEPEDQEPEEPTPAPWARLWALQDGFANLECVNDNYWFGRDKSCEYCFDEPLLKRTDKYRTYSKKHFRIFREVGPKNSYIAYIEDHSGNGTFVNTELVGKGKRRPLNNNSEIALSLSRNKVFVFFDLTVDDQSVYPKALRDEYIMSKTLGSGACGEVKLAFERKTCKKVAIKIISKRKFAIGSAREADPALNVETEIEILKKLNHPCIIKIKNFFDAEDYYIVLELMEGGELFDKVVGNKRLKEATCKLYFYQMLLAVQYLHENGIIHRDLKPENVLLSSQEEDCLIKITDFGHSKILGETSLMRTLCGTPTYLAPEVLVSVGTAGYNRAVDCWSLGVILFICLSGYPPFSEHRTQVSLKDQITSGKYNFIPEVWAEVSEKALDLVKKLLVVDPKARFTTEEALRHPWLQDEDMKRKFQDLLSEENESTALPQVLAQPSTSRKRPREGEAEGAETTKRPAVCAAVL

[21] = target: MAP2K2 (human) (UniProt P36507)
[22] = target: MAPK14 (human) (UniProt Q16539)
[23] = target: EPHA4 (human) (UniProt P54764)
Chain of EPHA4 (human) (P54764 whole entry, looked up): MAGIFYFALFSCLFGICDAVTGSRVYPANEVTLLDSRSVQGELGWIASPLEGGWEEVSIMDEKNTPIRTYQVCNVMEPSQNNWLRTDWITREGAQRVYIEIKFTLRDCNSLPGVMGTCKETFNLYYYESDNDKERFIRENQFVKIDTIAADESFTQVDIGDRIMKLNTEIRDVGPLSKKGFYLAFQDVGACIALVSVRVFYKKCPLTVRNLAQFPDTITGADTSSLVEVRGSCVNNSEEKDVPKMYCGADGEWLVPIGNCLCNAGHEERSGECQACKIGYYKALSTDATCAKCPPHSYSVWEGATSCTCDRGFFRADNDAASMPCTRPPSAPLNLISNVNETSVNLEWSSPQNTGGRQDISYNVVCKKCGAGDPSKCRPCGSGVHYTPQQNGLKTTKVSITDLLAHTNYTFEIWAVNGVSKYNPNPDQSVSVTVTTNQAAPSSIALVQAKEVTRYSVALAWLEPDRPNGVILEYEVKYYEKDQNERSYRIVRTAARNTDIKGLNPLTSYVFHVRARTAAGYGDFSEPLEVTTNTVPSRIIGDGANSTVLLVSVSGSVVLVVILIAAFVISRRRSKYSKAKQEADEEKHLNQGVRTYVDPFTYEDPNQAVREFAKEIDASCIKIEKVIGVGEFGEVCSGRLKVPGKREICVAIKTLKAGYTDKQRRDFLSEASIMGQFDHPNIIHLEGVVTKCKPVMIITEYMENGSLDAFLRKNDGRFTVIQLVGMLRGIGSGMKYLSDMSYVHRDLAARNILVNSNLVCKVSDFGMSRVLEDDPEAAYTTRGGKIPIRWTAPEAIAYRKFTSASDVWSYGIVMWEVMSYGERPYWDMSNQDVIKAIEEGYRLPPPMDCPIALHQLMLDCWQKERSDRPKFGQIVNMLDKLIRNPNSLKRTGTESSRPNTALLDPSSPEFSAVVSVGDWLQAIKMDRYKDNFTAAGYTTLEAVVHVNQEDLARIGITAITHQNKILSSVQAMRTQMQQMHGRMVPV

[24] = target: MAPK12 (human) (UniProt P53778)
[25] = target: MAPK9 (human) (UniProt P45984)
[26] = target: TESK1 (human) (UniProt Q15569)
[27] = target: MINK1 (human) (UniProt Q8N4C8)
Chain of MINK1 (human) (Q8N4C8 whole entry, looked up): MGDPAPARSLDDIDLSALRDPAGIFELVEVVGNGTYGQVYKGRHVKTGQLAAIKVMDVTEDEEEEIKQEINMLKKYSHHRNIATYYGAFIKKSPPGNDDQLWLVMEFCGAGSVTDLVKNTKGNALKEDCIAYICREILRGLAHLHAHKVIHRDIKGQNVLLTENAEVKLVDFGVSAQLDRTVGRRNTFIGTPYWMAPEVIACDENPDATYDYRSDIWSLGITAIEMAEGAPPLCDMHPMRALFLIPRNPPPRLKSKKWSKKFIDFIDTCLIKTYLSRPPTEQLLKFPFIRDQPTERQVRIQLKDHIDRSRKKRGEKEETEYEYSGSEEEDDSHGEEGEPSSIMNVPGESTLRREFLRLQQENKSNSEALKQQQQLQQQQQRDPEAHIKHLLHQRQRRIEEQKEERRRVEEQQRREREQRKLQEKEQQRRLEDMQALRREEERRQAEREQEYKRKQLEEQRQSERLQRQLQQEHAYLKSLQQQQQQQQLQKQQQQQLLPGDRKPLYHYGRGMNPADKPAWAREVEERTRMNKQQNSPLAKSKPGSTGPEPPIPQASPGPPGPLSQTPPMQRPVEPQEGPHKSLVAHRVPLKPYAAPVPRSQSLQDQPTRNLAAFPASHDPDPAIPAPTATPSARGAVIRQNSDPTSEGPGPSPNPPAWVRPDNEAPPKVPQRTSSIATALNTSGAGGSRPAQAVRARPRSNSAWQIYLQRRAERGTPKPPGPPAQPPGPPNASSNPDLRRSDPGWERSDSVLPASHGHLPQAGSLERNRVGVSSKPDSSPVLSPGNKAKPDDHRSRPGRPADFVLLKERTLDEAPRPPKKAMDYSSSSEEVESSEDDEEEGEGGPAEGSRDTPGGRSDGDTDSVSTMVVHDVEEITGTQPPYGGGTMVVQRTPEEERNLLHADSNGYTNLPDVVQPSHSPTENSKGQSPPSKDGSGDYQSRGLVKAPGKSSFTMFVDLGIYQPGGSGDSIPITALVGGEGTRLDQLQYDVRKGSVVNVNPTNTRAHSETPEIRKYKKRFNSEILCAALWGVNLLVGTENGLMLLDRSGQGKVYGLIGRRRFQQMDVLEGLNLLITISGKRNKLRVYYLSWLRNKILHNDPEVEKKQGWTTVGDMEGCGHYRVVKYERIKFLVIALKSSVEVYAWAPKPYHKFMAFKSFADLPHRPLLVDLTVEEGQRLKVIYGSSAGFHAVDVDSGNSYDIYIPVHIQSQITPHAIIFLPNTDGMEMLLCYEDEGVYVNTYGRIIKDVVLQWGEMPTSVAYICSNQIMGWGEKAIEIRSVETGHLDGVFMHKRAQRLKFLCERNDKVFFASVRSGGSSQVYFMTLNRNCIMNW

[28] = target: CSNK1G2 (human) (UniProt P78368)
[29] = target: PTK6 (human) (UniProt Q13882)
[30] = target: STK3 (human) (UniProt Q13188)
[31] = target: CDK9 CCNT1 (human) (UniProt P50750+O60563)
[32] = target: BRSK2 (human) (UniProt Q8IWQ3)
[33] = tested on: PAK2 (human), Q13177 [T402E]

## CNc1nc(Nc2ccc(C(=O)N3CCOCC3)cc2OC)ncc1Cl
[1]
  residual activity: 82%
[2]; compound 1.0 µM
  residual activity: 77%
[2]; compound 10.0 µM
  residual activity: 94%
[3]; compound 1.0 µM
  residual activity: 93%
[3]; compound 10.0 µM
  residual activity: 98%
[4]; compound 1.0 µM
  residual activity: 82%
[4]; compound 10.0 µM
  residual activity: 65%
[5]; compound 1.0 µM
  residual activity: 83%
[5]; compound 10.0 µM
  residual activity: 55%
[6]; compound 1.0 µM
  residual activity: 90%
[6]; compound 10.0 µM
  residual activity: 86%
[7]; compound 1.0 µM
  residual activity: 82%
[7]; compound 10.0 µM
  residual activity: 72%
[8]; compound 1.0 µM
  residual activity: 97%
[8]; compound 10.0 µM
  residual activity: 84%
[9]; compound 1.0 µM
  residual activity: 79%
[9]; compound 10.0 µM
  residual activity: 56%
[10]; compound 1.0 µM
  residual activity: 96%
[10]; compound 10.0 µM
  residual activity: 94%
[11]; compound 1.0 µM
  residual activity: 94%
[11]; compound 10.0 µM
  residual activity: 97%
[12]
  residual activity: 94%
[13]
  residual activity: 101%
[14]
  residual activity: 87%
[15]; compound 1.0 µM
  residual activity: 79%
[15]; compound 10.0 µM
  residual activity: 90%
[16]
  residual activity: 83%
[17]
  residual activity: 65%
[18]; compound 1.0 µM
  residual activity: 49%
[18]; compound 10.0 µM
  residual activity: 47%
[19]; compound 1.0 µM
  residual activity: 94%
[19]; compound 10.0 µM
  residual activity: 113%
[20]; compound 1.0 µM
  residual activity: 52%
[20]; compound 10.0 µM
  residual activity: 96%
[21]; compound 1.0 µM
  residual activity: 91%
[21]; compound 10.0 µM
  residual activity: 86%
[22]; compound 1.0 µM
  residual activity: 71%
[22]; compound 10.0 µM
  residual activity: 93%
[23]; compound 1.0 µM
  residual activity: 100%
[23]; compound 10.0 µM
  residual activity: 94%
[24]; compound 1.0 µM
  residual activity: 88%
[24]; compound 10.0 µM
  residual activity: 94%
[25]; compound 1.0 µM
  residual activity: 76%
[25]; compound 10.0 µM
  residual activity: 46%
[26]; compound 1.0 µM
  residual activity: 90%
[26]; compound 10.0 µM
  residual activity: 83%
[27]; compound 1.0 µM
  residual activity: 86%
[27]; compound 10.0 µM
  residual activity: 96%
[28]; compound 1.0 µM
  residual activity: 96%
[28]; compound 10.0 µM
  residual activity: 93%
[29]; compound 1.0 µM
  residual activity: 56%
[29]; compound 10.0 µM
  residual activity: 39%
[30]; compound 1.0 µM
  residual activity: 85%
[30]; compound 10.0 µM
  residual activity: 73%
[31]; compound 1.0 µM
  residual activity: 89%
[31]; compound 10.0 µM
  residual activity: 83%
[32]; compound 1.0 µM
  residual activity: 78%
[32]; compound 10.0 µM
  residual activity: 64%
[33]; compound 1.0 µM
  residual activity: 97%
[33]; compound 10.0 µM
  residual activity: 105%
